Source: patent publication US9533952B2, “N-prop-2-ynyl carboxamide derivatives and their use as TRPA1 antagonists” (Orion Corporation, priority 2012, dated 2017)

The compounds below were run against TRPA1 (Homo sapiens, UniProt O75762) (assay: Determination of TRPA1 activity in vitro (TRPA1 antagonism in vitro)). Settings: procedure of Wei et al., Anesthesiology 111 (2009) 147-154.
Format: cell-based

Sequence of TRPA1 (O75762 whole entry): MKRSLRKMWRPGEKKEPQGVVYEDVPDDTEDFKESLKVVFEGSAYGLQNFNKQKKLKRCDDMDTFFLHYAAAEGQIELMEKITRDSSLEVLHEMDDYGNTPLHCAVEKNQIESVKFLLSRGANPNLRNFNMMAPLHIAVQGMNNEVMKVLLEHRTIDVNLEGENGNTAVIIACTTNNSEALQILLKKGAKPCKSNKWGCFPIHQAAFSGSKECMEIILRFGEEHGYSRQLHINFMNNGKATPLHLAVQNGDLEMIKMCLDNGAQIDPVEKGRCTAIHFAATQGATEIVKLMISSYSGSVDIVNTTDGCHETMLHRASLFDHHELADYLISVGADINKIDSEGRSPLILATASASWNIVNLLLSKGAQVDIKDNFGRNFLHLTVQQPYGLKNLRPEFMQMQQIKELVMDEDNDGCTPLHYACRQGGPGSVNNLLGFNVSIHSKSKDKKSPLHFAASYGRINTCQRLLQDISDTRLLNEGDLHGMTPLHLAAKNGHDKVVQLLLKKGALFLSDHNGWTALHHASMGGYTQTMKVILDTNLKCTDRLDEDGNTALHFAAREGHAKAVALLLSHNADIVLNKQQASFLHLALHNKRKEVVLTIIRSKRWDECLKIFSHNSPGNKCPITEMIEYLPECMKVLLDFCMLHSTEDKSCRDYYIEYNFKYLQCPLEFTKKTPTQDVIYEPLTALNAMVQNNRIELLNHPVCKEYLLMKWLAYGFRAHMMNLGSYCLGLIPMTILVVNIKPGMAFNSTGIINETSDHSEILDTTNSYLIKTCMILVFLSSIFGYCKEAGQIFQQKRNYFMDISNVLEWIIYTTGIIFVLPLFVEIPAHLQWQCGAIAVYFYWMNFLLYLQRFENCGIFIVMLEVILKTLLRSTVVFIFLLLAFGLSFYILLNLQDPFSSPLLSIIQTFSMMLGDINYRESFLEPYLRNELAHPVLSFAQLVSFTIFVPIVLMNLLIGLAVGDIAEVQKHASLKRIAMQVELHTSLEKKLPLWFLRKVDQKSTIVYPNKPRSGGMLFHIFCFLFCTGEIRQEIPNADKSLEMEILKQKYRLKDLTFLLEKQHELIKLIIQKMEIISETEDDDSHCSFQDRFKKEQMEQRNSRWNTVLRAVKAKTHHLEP

Row | SMILES | IC50
1 | C#CC(C)(C)NC(=O)c1cc(F)ccc1NCC(F)(F)C(F)(F)F [Example 31, 5-Fluoro-N-(2-methylbut-3-yn-2-yl)-2-(2,2,3,3,3-pentafluoropropylamino) benzamide] | 2.6 µM
2 | C#CC(CC)(CC)NC(=O)c1cc(Cl)ccc1NCCOC [Example 44, 5-Chloro-N-(3-ethylpent-1-yn-3yl)-2-(2-methoxyethylamino)-benzamide] | 1.3 µM
3 | C#CC(C)(C)NC(=O)c1cc(C(F)(F)F)ccc1NCC(F)(F)F [Example 39, N-(2-Methylbut-3-yn-2-yl)-2-(2,2,2-trifluoroethylamino)-5-(trifluoromethyl) benzamide] | 0.6 µM
4 | C#CC(C)(C)NC(=O)c1cc(C)ccc1NC(C)C [Example 93, 2-(Isopropylamino)-5-methyl-N-(2-methylbut-3-yn-2-yl)benzamide] | 11.4 µM
5 | C#CC(C)(CC)NC(=O)c1cccnc1Nc1cc(F)cc(C#N)c1 (centres unmarked) [Example 187, 2-(3-Cyano-5-fluorophenylamino)-N-(3-methylpent-1-yn-3-yl)nicotinamide] | 0.4 µM
6 | C#CC(C)(C)NC(=O)c1ccc(Cl)nc1NC(C)C [Example 112, 6-Chloro-2-(isopropylamino)-N-(2-methylbut-3-yn-2-yl)nicotinamide] | 3.4 µM
7 | C#CC(C)(C)NC(=O)c1cc(OC)ccc1NCCC(F)(F)F [Example 76, 5-Methoxy-N-(2-methylbut-3-yn-2-yl)-2-(3,3,3-trifluoropropyl-amino)benzamide] | 4.7 µM
8 | C#CC(C)(C)NC(=O)c1cc(F)ccc1NCCCC(F)(F)F [Example 54, 5-Fluoro-N-(2-methylbut-3-yn-2-yl)-2-(4,4,4-trifluorobutylamino)-benzamide] | 1.2 µM
9 | C#CC(C)(C)NC(=O)c1cccnc1Nc1cc(F)cc(OC)c1 [Example 165, 2-(3-Fluoro-5-methoxyphenylamino)-N-(2-methylbut-3-yn-2-yl)nicotinamide] | 4 µM
10 | C#CC(C)(C)NC(=O)c1cc(C(F)(F)F)cnc1NCC(F)(F)F [Example 35, N-(2-Methylbut-3-yn-2-yl)-2-(2,2,2-trifluoroethylamino)-5-(trifluoromethyl)nicotinamide] | 0.5 µM
11 | C#CC(C)(CC)NC(=O)c1cc(F)ccc1NCCCC (centres unmarked) [Example 102, 2-(Butylamino)-5-fluoro-N-(3-methylpent-1-yn-3-yl)benzamide] | 0.3 µM
12 | C#CC(C)(C)NC(=O)c1cc(C(F)(F)F)ccc1NCC(F)(F)C(F)(F)F [Example 18, N-(2-Methylbut-3-yn-2-yl)-2-(2,2,3,3,3-pentafluoropropylamino)-5-(trifluoromethyl)benzamide] | 0.3 µM
13 | C#CC(C)(C)NC(=O)c1ccc(C(F)(F)F)nc1NC1CCOCC1 [Example 115, N-(2-Methylbut-3-yn-2-yl)-2-(tetrahydro-2H-pyran-4-ylamino)-6-(trifluoromethyl)nicotinamide] | 4.8 µM
14 | C#CC(C)(C)NC(=O)c1cc2c(cc1NCC(C)C)OCCO2 [Example 9, 7-(Isobutylamino)-N-(2-methylbut-3-yn-2-yl)-2,3-dihydrobenzo[b][1,4]dioxine-6-carboxamide] | 11.2 µM
15 | C#CC(C)(CC)NC(=O)c1cccnc1Nc1ccc(F)c(OC)c1 (centres unmarked) [Example 194, 2-(4-Fluoro-3-methoxyphenylamino)-N-(3-methylpent-1-yn-3-yl)nicotinamide] | 1.6 µM
16 | C#CC(C)(C)NC(=O)c1cc(F)cnc1NCC(F)(F)C(F)(F)F [Example 29, 5-Fluoro-N-(2-methylbut-3-yn-2-yl)-2-(2,2,3,3-pentafluoropropyl-amino)nicotinamide] | 0.4 µM
17 | C#CC(C)(C)NC(=O)c1cc(Cl)cnc1NCCCOCC [Example 146, 5-Chloro-2-(3-ethoxypropylamino)-N-(2-methylbut-3-yn-2-yl)nicotinamide] | 5.9 µM
18 | C#CC(C)(C)NC(=O)c1cccnc1NCc1cccc(F)c1 [Example 98, 2-(3-Fluorobenzylamino)-N-(2-methylbut-3-yn-2-yl)nicotinamide] | 5.3 µM
19 | C#CC(C)(C)NC(=O)c1cc(F)c(F)cc1NC1CCC1 [Example 17, 2-(Cyclobutylamino)-4,5-difluoro-N-(2-methylbut-3-yn-2-yl)benzamide] | 1.2 µM
20 | C#CC(C)(C)NC(=O)c1cccnc1Nc1cc(Cl)cc(OC)c1 [Example 167, 2-(3-Chloro-5-methoxyphenylamino)-N-(2-methylbut-3-yn-2-yl)nicotinamide] | 3.2 µM
21 | C#CC(C)(NC(=O)c1cc(F)c(F)cc1NCC)C(C)C (centres unmarked) [Example 87, N-(3,4-Dimethylpent-1-yn-3-yl)-2-(ethylamino)-4,5-difluorobenzamide] | 0.6 µM
22 | C#CC(C)(C)NC(=O)c1cc(F)c(F)cc1NC(C)(C)C [Example 82, 2-(tert-Butylamino)-4,5-difluoro-N-(2-methylbut-3-yn-2-yl)benzamide] | 5.4 µM
23 | C#CC(C)(C)NC(=O)c1cc(F)cnc1NCC(F)(F)F [Example 33, 5-Fluoro-N-(2-methylbut-3-yn-2-yl)-2-(2,2,2-trifluoroethylamino)-nicotinamide] | 3 µM
24 | C#CC(C)(C)NC(=O)c1cccnc1Nc1cccc(F)c1 [Example 121, 2-(3-Fluorophenylamino)-N-(2-methylbut-3-yn-2-yl)nicotinamide] | 1.1 µM

Row | SMILES | IC50
25 | C#CC(C)(C)NC(=O)c1ccccc1NCC(C)C [Example 80, 2-(Isobutylamino)-N-(2-methylbut-3-yn-2-yl)benzamide] | 1.3 µM
26 | C#CC(C)(C)NC(=O)c1cc(C(F)(F)F)cnc1NCC(F)F [Example 56, 2-(2,2-Difluoroethylamino)-N-(2-methylbut-3-yn-2-yl)-5-(trifluoromethyl)nicotinamide] | 1.6 µM
27 | C#CC(C)(C)NC(=O)c1ccccc1NCCC(F)(F)F [Example 79, N-(2-Methylbut-3-yn-2-yl)-2-(3,3,3-trifluoropropylamino)benzamide] | 1.8 µM
28 | C#CC(C)(C)NC(=O)c1cc(F)cnc1NC(C)C(F)(F)F (centres unmarked) [Example 158, 5-Fluoro-N-(2-methylbut-3-yn-2-yl)-2-(1,1,1-trifluoropropan-2-ylamino)nicotinamide] | 4 µM
29 | C#CC(C)(C)NC(=O)c1cccnc1Nc1cc(F)cc(C#N)c1 [Example 183, 2-(3-Cyano-5-fluorophenylamino)-N-(2-methylbut-3-yn-2-yl)nicotinamide] | 1.4 µM
30 | C#CC(C)(CC)NC(=O)c1cc(F)cnc1NCC(F)F (centres unmarked) [Example 20, 2-(2,2-Difluoroethylamino)-5-fluoro-N-(3-methylpent-1-yn-3-yl)nicotinamide] | 1.4 µM
31 | C#CC(C)(C)NC(=O)c1cc(F)cnc1NC1CC(F)(F)C1 [Example 156, 2-(3,3-Difluorocyclobutylamino)-5-fluoro-N-(2-methylbut-3-yn-2-yl)nicotinamide] | 1.6 µM
32 | C#CC(C)(C)NC(=O)c1cc(F)cc(F)c1NCCC(F)F [Example 135, 2-(3,3-Difluoropropylamino)-3,5-difluoro-N-(2-methylbut-3-yn-2-yl)benzamide] | 5 µM
33 | C#CC(C)(C)NC(=O)c1ccc(F)cc1NCCC(F)(F)F [Example 71, 4-Fluoro-N-(2-methylbut-3-yn-2-yl)-2-(3,3,3-trifluoropropylamino) benzamide] | 0.7 µM
34 | C#CC(C)(C)NC(=O)c1cc(C(F)(F)F)cnc1NC(C)(C)C [Example 128, 2-(tert-Butylamino)-N-(2-methylbut-3-yn-2-yl)-5-(trifluoromethyl)-nicotinamide] | 1.1 µM
35 | C#CC(C)(C)NC(=O)c1cc(Cl)cnc1NCCOC(C)(C)C [Example 147, 2-(2-tert-Butoxyethylamino)-5-chloro-N-(2-methylbut-3-yn-2-yl)nicotinamide] | 5.2 µM
36 | C#CC(C)(CC)NC(=O)c1cccnc1Nc1ccccc1F (centres unmarked) [Example 185, 2-(2-Fluorophenylamino)-N-(3-methylpent-1-yn-3-yl)nicotinamide] | 0.5 µM
37 | C#CC(C)(C)NC(=O)c1cccc(F)c1NCCC [Example 16, 3-Fluoro-N-(2-methylbut-3-yn-2-yl)-2-(propylamino)benzamide] | 10.8 µM
38 | C#CC(C)(C)NC(=O)c1cc(F)ccc1NC1CCC1 [Example 24, 2-(Cyclobutylamino)-5-fluoro-N-(2-methylbut-3-yn-2-yl)benzamide] | 1.3 µM
39 | C#CC(C)(C)NC(=O)c1ccc(C(F)(F)F)cc1NCCC(F)(F)F [Example 72, N-(2-methylbut-3-yn-2-yl)-4-(trifluoromethyl)-2-(3,3,3-trifluoropropyl-amino)benzamide] | 0.5 µM
40 | C#CC(C)(C)NC(=O)c1cccnc1Nc1ccccc1F [Example 122, 2-(2-Fluorophenylamino)-N-(2-methylbut-3-yn-2-yl)nicotinamide] | 4.8 µM
41 | C#CC(C)(C)NC(=O)c1cc(F)c(F)cc1NC1CC1 [Example 86, 2-(Cyclopropylamino)-4,5-difluoro-N-(2-methylbut-3-yn-2-yl) benzamide] | 2.2 µM
42 | C#CC(C)(C)NC(=O)c1ccc(Cl)cc1NCCC [Example 13, 4-Chloro-N-(2-methylbut-3-yn-2-yl)-2-(propylamino)benzamide] | 0.8 µM
43 | C#CC(C)(C)NC(=O)c1cc(F)ccc1NCCOC(F)(F)F [Example 53, 5-Fluoro-N-(2-methylbut-3-yn-2-yl)-2-(2-(trifluoromethoxy)-ethylamino)benzamide] | 1.9 µM
44 | C#CC(C)(C)NC(=O)c1cc(F)cnc1NCCC(F)(F)F [Example 1, 5-Fluoro-N-(2-methylbut-3-yn-2-yl)-2-(3,3,3-trifluoropropylamino)-nicotinamide] | 1.9 µM
45 | C#CC(C)(C)NC(=O)c1cc(F)cnc1Nc1ccc(C2CCCC2)nc1 [Example 140, 2-(6-Cyclopentylpyridin-3-ylamino)-5-fluoro-N-(2-methylbut-3-yn-2-yl)nicotinamide] | 5.5 µM
46 | C#CC(C)(CC)NC(=O)c1cccnc1Nc1cc(Cl)cc(OC)c1 (centres unmarked) [Example 168, 2-(3-Chloro-5-methoxyphenylamino)-N-(3-methylpent-1-yn-3-yl)nicotinamide] | 0.8 µM
47 | C#CC(C)(C)NC(=O)c1cc(Cl)ccc1NCCC [Example 3, 5-Chloro-N-(2-methylbut-3-yn-2-ylbut-3)-2-(propylamino)benzamide] | 1.1 µM
